# Assays:
# Assay in all cases: Microbiological challenge testing in BPW broth, graded subculture counts
# Assay type in all cases: cell-based
# Aeromonas sp. Wild type = test system: Aeromonas sp. Wild type
# Protocol: (§1) The microorganisms in the table below were used in challenge tests. They were either ATCC (American Type Culture Collection) or “wild type” as indicated. Wild type organisms were problematic organisms previously isolated from chemical products.
# (§2) All of the microorganisms were grown in Tryptose Soy Broth (TSB), DIFCO™ available from Becton, Dickinson and Company, containing 1% dextrose. Candida albicans and Aspergillus niger, were incubated at 22° C.+/−2° C. for at least 96 hours. All bacteria were incubated at 35° C.+/−2° C. in a humidified incubator for at least 96 hours.
# (§3) The following procedure was followed to determine the amount of each challenge material (inoculum broth) needed to produce a 10^8 CFU/mL challenge, which is equivalent to a final test-sample microbial concentration of 10^5 to 10^6 CFU/mL (CFU=colony forming units).
# (§4) Using a sterile pipette, 1 mL of the growth from each TSB culture was transferred into tubes of 9 mL buffered water (pH 7.2 phosphate buffer) and mixed thoroughly. This was repeated to make serial 1:10 dilutions. Then, 0.1 mL of each sample and dilution was inoculated onto agar plates to produce the equivalent of a further 1:10 dilution. (C. albicans and A. niger were inoculated onto SABD and bacteria were inoculated onto Plate Count Agar (PCA), DIFCO™ available from Becton, Dickinson and Company.) (The normal volume plated for most samples was 0.1 mL. Some samples that could be very low in micro-organisms (high dilutions) were plated using 0.5 mL of inoculum, in order to produce reproducible counts.) The samples were distributed on the plates using the spread-plate technique. The spread-plate technique is carried out by spreading the sample over the entire plate surface using a sterile spreading rod while rotating the plate with a rotary auto-plater. After the inoculum was absorbed completely by the agar, each plate was inverted and incubated (fungi at 22° C.+/−2° C. and bacteria at 35° C.+/−2° C.).
# (§5) After incubation for at least 48 hours, colonies that had developed on the agar plates were counted (CFU) and recorded with the corresponding dilution. If counting had to be delayed temporarily, plates were refrigerated, preferably no more than 24 hours, until they could be counted. The number of CFU/mL was determined by multiplying the plate count by the dilution factor of the plate counted.
# (§6) Turbidity in Nepholemetric Turbidity Units (NTU) was measured for each serial dilution using the HF-Micro 100 Model Turbidimeter. For each microorganism, the plate counts were compared to the turbidity readings.
# (§7) Control substrates (“broth alone”) were prepared for each microorganism separately in triplicate by adding 13.5 mL of Buffered Peptone Water broth (BPW) containing 1% dextrose to each 20-mL glass tube, then adding 1.5 mL challenge material to produce a final concentration at time zero of 10^5 to 10^6 CFU/mL and a total volume of 15 mL.
# (§8) Test sample substrates were prepared containing each test material listed below at the concentrations shown for challenge testing with each microorganism separately. Sample substrates were prepared in triplicate, except the substrates containing butoxyethanol which were prepared in duplicate. Substrates were prepared by adding BPW containing 1% dextrose to each 20-mL glass tube, then adding the test material in the amount appropriate to achieve the desired weight/volume percent and to achieve a total volume of BPW plus dextrose plus test material of 13.5 mL. Then 1.5 mL challenge material was added to produce a final concentration at time zero of 10^5 to 10^6 CFU/mL and a total test sample substrate volume of 15 mL.
# [1] = test system: Bacillus subtilis Wild type
# Protocol: as §1, §2, §3, §4, §5, §6, §7, §8
# [2] = test system: Burkholderia cepacia Wild type; conditions: B. cepacia
# Protocol: as §1, §2, §3, §4, §5, §6, §7, §8
# [3] = test system: Proteus vulgaris Wild type
# Protocol: as §1, §2, §3, §4, §5, §6, §7, §8
structure (smiles),measurement,setting,value
"OCC1CCCC(CO)C1 (stereo not drawn) [1,3-CHDM, 1,3-cyclohexanedimethanol]","Aeromonas sp growth grade, 3 day",Aeromonas sp. Wild type; 0.5% weight/volume,"5 (More than 10,000 colonies estimated (thus more than 100,000 CFU/mL))"
same,"Aeromonas sp growth grade, 14 day",Aeromonas sp. Wild type; 0.5% weight/volume,"4 (1000 to 10,000 colonies countable (thus 10,000 CFU/mL to 100,000 CFU/mL))"
same,"Aeromonas sp growth grade, 30 day",Aeromonas sp. Wild type; 0.5% weight/volume,"4 (1000 to 10,000 colonies countable (thus 10,000 CFU/mL to 100,000 CFU/mL))"
same,"Aeromonas sp growth grade, 3 day",Aeromonas sp. Wild type; 1.25% weight/volume,"4 (1000 to 10,000 colonies countable (thus 10,000 CFU/mL to 100,000 CFU/mL))"
same,"Aeromonas sp growth grade, 14 day",Aeromonas sp. Wild type; 1.25% weight/volume,"4 (1000 to 10,000 colonies countable (thus 10,000 CFU/mL to 100,000 CFU/mL))"
same,"Aeromonas sp growth grade, 30 day",Aeromonas sp. Wild type; 1.25% weight/volume,"4 (1000 to 10,000 colonies countable (thus 10,000 CFU/mL to 100,000 CFU/mL))"
same,"Aeromonas sp growth grade, 3 day",Aeromonas sp. Wild type; 2.5% weight/volume,"4 (1000 to 10,000 colonies countable (thus 10,000 CFU/mL to 100,000 CFU/mL))"
same,"Aeromonas sp growth grade, 14 day",Aeromonas sp. Wild type; 2.5% weight/volume,"4 (1000 to 10,000 colonies countable (thus 10,000 CFU/mL to 100,000 CFU/mL))"
same,"Aeromonas sp growth grade, 30 day",Aeromonas sp. Wild type; 2.5% weight/volume,"4 (1000 to 10,000 colonies countable (thus 10,000 CFU/mL to 100,000 CFU/mL))"
same,"Aeromonas sp growth grade, 3 day",Aeromonas sp. Wild type; 5.0% weight/volume,"4 (1000 to 10,000 colonies countable (thus 10,000 CFU/mL to 100,000 CFU/mL))"
same,"Aeromonas sp growth grade, 14 day",Aeromonas sp. Wild type; 5.0% weight/volume,"4 (1000 to 10,000 colonies countable (thus 10,000 CFU/mL to 100,000 CFU/mL))"
same,"Aeromonas sp growth grade, 30 day",Aeromonas sp. Wild type; 5.0% weight/volume,"4 (1000 to 10,000 colonies countable (thus 10,000 CFU/mL to 100,000 CFU/mL))"
same,"B. subtillis growth grade, 3 day",[1]; 0.5% weight/volume,"4 (1000 to 10,000 colonies countable (thus 10,000 CFU/mL to 100,000 CFU/mL))"
same,"B. subtillis growth grade, 14 day",[1]; 0.5% weight/volume,"4 (1000 to 10,000 colonies countable (thus 10,000 CFU/mL to 100,000 CFU/mL))"
same,"B. subtillis growth grade, 30 day",[1]; 0.5% weight/volume,"4 (1000 to 10,000 colonies countable (thus 10,000 CFU/mL to 100,000 CFU/mL))"
same,"B. subtillis growth grade, 3 day",[1]; 1.25% weight/volume,"4 (1000 to 10,000 colonies countable (thus 10,000 CFU/mL to 100,000 CFU/mL))"
same,"B. subtillis growth grade, 14 day",[1]; 1.25% weight/volume,"4 (1000 to 10,000 colonies countable (thus 10,000 CFU/mL to 100,000 CFU/mL))"
same,"B. subtillis growth grade, 30 day",[1]; 1.25% weight/volume,"4 (1000 to 10,000 colonies countable (thus 10,000 CFU/mL to 100,000 CFU/mL))"
same,"B. subtillis growth grade, 3 day",[1]; 2.5% weight/volume,"4 (1000 to 10,000 colonies countable (thus 10,000 CFU/mL to 100,000 CFU/mL))"
same,"B. subtillis growth grade, 14 day",[1]; 2.5% weight/volume,"4 (1000 to 10,000 colonies countable (thus 10,000 CFU/mL to 100,000 CFU/mL))"
same,"B. subtillis growth grade, 30 day",[1]; 2.5% weight/volume,"4 (1000 to 10,000 colonies countable (thus 10,000 CFU/mL to 100,000 CFU/mL))"
same,"B. subtillis growth grade, 3 day",[1]; 5.0% weight/volume,"4 (1000 to 10,000 colonies countable (thus 10,000 CFU/mL to 100,000 CFU/mL))"
same,"B. subtillis growth grade, 14 day",[1]; 5.0% weight/volume,"4 (1000 to 10,000 colonies countable (thus 10,000 CFU/mL to 100,000 CFU/mL))"
same,"B. subtillis growth grade, 30 day",[1]; 5.0% weight/volume,"4 (1000 to 10,000 colonies countable (thus 10,000 CFU/mL to 100,000 CFU/mL))"
same,Grade,"[2]; 0.5% (wt/vol), 3 day","5 (More than 10,000 colonies estimated (thus more than 100,000 CFU/mL))"
same,Grade,"[2]; 0.5% (wt/vol), 14 day","5 (More than 10,000 colonies estimated (thus more than 100,000 CFU/mL))"
same,Grade,"[2]; 0.5% (wt/vol), 30 day","5 (More than 10,000 colonies estimated (thus more than 100,000 CFU/mL))"
same,Grade,"[2]; 1.25% (wt/vol), 3 day",4.7
same,Grade,"[2]; 1.25% (wt/vol), 14 day",4.7
same,Grade,"[2]; 1.25% (wt/vol), 30 day",4.7
same,Grade,"[2]; 2.5% (wt/vol), 3 day","4 (1000 to 10,000 colonies countable (thus 10,000 CFU/mL to 100,000 CFU/mL))"
same,Grade,"[2]; 2.5% (wt/vol), 14 day","4 (1000 to 10,000 colonies countable (thus 10,000 CFU/mL to 100,000 CFU/mL))"
same,Grade,"[2]; 2.5% (wt/vol), 30 day","4 (1000 to 10,000 colonies countable (thus 10,000 CFU/mL to 100,000 CFU/mL))"
same,Grade,"[2]; 5.0% (wt/vol), 3 day","3 (100 to 1000 colonies (thus 1000 to 10,000 CFU/mL))"
same,Grade,"[2]; 5.0% (wt/vol), 14 day",1 (0 to 51 colonies counted (thus 10 to 510 CFU/mL based on 0.1-mL sample))
same,Grade,"[2]; 5.0% (wt/vol), 30 day",3.3
same,"P. vulgaris growth grade, 3 day",[3]; 0.5% weight/volume,"5 (More than 10,000 colonies estimated (thus more than 100,000 CFU/mL))"
same,"P. vulgaris growth grade, 13 day",[3]; 0.5% weight/volume,"5 (More than 10,000 colonies estimated (thus more than 100,000 CFU/mL))"
same,"P. vulgaris growth grade, 30 day",[3]; 0.5% weight/volume,"5 (More than 10,000 colonies estimated (thus more than 100,000 CFU/mL))"
same,"P. vulgaris growth grade, 3 day",[3]; 1.25% weight/volume,"5 (More than 10,000 colonies estimated (thus more than 100,000 CFU/mL))"
same,"P. vulgaris growth grade, 13 day",[3]; 1.25% weight/volume,"4 (1000 to 10,000 colonies countable (thus 10,000 CFU/mL to 100,000 CFU/mL))"
same,"P. vulgaris growth grade, 30 day",[3]; 1.25% weight/volume,"4 (1000 to 10,000 colonies countable (thus 10,000 CFU/mL to 100,000 CFU/mL))"

# From patent US20100160454A1, “ANTIMICROBIAL AGENTS, COMPOSITIONS AND PRODUCTS CONTAINING THE SAME, AND METHODS OF USING THE COMPOSITIONS AND PRODUCTS” (Eastman Chemical Company, priority 2008, published 2010)
